# Laboratory results taken from patent publication US5646027A, “Process for the production of gelatinase catalytic domain protein” (Warner-Lambert Company, priority 1994, dated 1997).
# How the values were obtained:
# [1] = target: T1, human 72 kDa gelatinase catalytic domain (GCD), reconstructed 19 kDa protein lacking propeptide, C-terminal domain and fibronectin-like insert, Seq ID No: 1 (Homo sapiens, UniProt P08253, DEL214-387); assay: Inhibition of GCD cleavage of thiopeptolide by amino acid derivatives; assay type: biochemical; conditions: for GCD IC50: 17.3 nM GCD, 100 μM thiopeptolide, 10 mM CaCl2, 10 μM ZnCl2, MOPS pH 7.0; for GCD Ki: derived from IC50 by Ki=IC50/(1+[substrate]/Km), substrate 100 μM, Km 134 μM
# T1 construct: starting at Ala at position -2 and ending at Ile at 168; made in house; host or cells: E. coli BL21(DE3)/pLysS
# Procedure: The 100 μL assay mixture typically contained 50 mM MOPS (pH 7.0), 1 mM DTNB, 100 μM thiopeptolide, 10 mM CaCl2, 10 μM ZnCl2, and the enzyme.
# The compounds tested for GCD inhibition were obtained from Bachem. […] Inhibition was initially tested at inhibitor concentrations of 100 and 500 μM. […] The determinations were repeated three times.
# [2] = target: stromelysin catalytic domain (SCD), C-terminally truncated human stromelysin, Seq ID No: 2 (Homo sapiens, UniProt P08254); conditions: taken from Ye Q. Z., et al., J. Med. Chem., 1994;37:206-209; cited from earlier work
# [3] = target: fluorogenic peptide Dnp-Pro-Leu-Gly-Leu-Trp-Ala-D-Arg-NH2
# [4] = target: fluorogenic peptide Mca-Pro-Leu-Gly-Leu-Dpa-Ala-Arg-NH2
# [5] = target: thiopeptolide Ac-Pro-Leu-Gly-thioester-Leu-Leu-Gly-OEt
# T1 sequence (P08253 with tags, fused parts or gaps DEL214-387): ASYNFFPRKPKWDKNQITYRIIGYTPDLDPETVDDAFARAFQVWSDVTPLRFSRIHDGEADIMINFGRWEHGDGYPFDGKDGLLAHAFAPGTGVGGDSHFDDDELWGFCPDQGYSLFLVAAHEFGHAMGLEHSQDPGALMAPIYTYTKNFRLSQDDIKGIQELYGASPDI
# stromelysin catalytic domain (SCD), C-terminally truncated stromelysin (enzyme), sequence (P08254 100-273 limits assumed): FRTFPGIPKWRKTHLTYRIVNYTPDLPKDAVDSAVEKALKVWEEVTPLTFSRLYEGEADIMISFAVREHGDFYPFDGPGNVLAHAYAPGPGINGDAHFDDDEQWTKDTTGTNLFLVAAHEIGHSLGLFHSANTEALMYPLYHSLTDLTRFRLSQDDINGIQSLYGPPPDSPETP
# stromelysin catalytic domain (SCD), C-terminally truncated human stromelysin, Seq ID No: 2, sequence (P08254 100-273): as the sequence (P08254 100-273 limits assumed) above
Molecule,GCD IC50 [1],GCD Ki [1],IC50 [2],further results
"CC(C)(C)OC(=O)N[C@@H](Cc1c[nH]c2ccccc12)C(=O)O [Compound 5, Boc-L-Trp-OH]",57 ± 4 µM,33 µM,–,–
"O=C(N[C@H](Cc1ccc(O)cc1)C(=O)O)OCc1ccccc1 [Compound 8, Cbz-D-Tyr-OH]",> 500 µM,–,–,–
"O=C(N[C@@H](Cc1ccccc1)C(=O)O)OCc1ccccc1 [Compound 9, Cbz-L-Phe-OH]",21 ± 1 µM,12 µM,–,–
"N[C@@H](Cc1c[nH]c2ccccc12)C(=O)O [Compound 3, H-L-Trp-OH]",> 500 µM,–,> 500 µM,GCD inhibition (in words) ([1]; tested at 100 and 500 μM): not active
"N[C@H](Cc1c[nH]c2ccccc12)C(=O)O [Compound 4, H-D-Trp-OH]",> 500 µM,–,> 500 µM,–
"O=C(N[C@@H](Cc1ccc(O)cc1)C(=O)O)OCc1ccccc1 [Compound 7, Cbz-L-Tyr-OH]",10.4 ± 0.4 µM,6.0 µM,–,–
"human 72 kDa gelatinase catalytic domain protein (GCD), without propeptide, C-terminal domain and fibronectin-like insert (enzyme)",–,–,–,Catalytic efficiency kcat/Km in cleaving the fluorogenic peptide [3]: 112000 M⁻¹ s⁻¹; Catalytic efficiency kcat/Km in cleaving the fluorogenic peptide [4]: 184000 M⁻¹ s⁻¹; Catalytic efficiency kcat/Km in cleaving the thiopeptolide [5]: 119000 M⁻¹ s⁻¹
"O=C(N[C@H](Cc1ccccc1)C(=O)O)OCc1ccccc1 [Compound 10, Cbz-D-Phe-OH]",100 to 500 µM,–,> 500 µM,–
"CC(C)(C)OC(=O)N[C@H](Cc1c[nH]c2ccccc12)C(=O)O [Compound 6, Boc-D-Trp-OH]",> 500 µM,–,100 to 500 µM,–
"stromelysin catalytic domain (SCD), C-terminally truncated stromelysin (enzyme)",–,–,–,Catalytic efficiency kcat/Km in cleaving the fluorogenic peptide [3]: 13700 M⁻¹ s⁻¹; Catalytic efficiency kcat/Km in cleaving the fluorogenic peptide [4]: 10000 M⁻¹ s⁻¹; Catalytic efficiency kcat/Km in cleaving the thiopeptolide [5]: 7840 M⁻¹ s⁻¹
